Measured values: US4544556A, “Xanthine derivatives, pharmaceutical compositions containing same and their therapeutic use” (Malesci S.p.A. Istituto Farmacologico, priority 1982, dated 1985)
Read-outs that look alike come from different tables or passages of the source.

Experiments:
brain P.D.E. = test: Antiphosphodiesterase activity, brain P.D.E.; format: biochemical, Wistar rats; conditions: rat brain, relative to theophylline
Excerpt: (§1) The preparation of the enzyme from heart, lungs and brain of Wistar rats and the activity test of P.D.E. have been carried out according to the R. W. BUTCHER and E. W. […] (J. Biol. Chem. 237, 1244; 1962).

[1] = system: acetylcholine induced bronchospasm; test: Antibronchospastic activity (acetylcholine induced bronchospasm, Konzett-Rossler method); format: in vivo, guinea pigs; conditions: Cavia porcellus, im, read-out: ED50 (50% reduction of acetylcholine induced bronchospasm)
Excerpt: The test has been carried out in anaesthesized adult guinea pigs under artificial respiration.

rats = test: Activity on CNS: reaction to subtoxic dose of cardiazole, rats; format: in vivo; conditions: cardiazole i.p. 60-70 mg/Kg
Acute toxicity = conditions: mouse, in vivo, male Swiss mouses about 20 g, empty since 16 hours, read-out: DL50 (the source's name)
Procedure: The compound has been administered either per os or by intravenous injection to male Swiss mouses having a weight of about 20 g, empty since 16 hours.

mouses = test: Activity on CNS: reaction to subtoxic dose of cardiazole, mouses; format: in vivo; conditions: cardiazole i.p. 60-70 mg/Kg
guinea pigs = test: Activity on CNS: reaction to subtoxic dose of cardiazole, guinea pigs; format: in vivo; conditions: cardiazole i.p. 60-70 mg/Kg
heart P.D.E. = test: Antiphosphodiesterase activity, heart P.D.E.; format: biochemical, Wistar rats; conditions: rat heart, relative to theophylline
Excerpt: as §1

lung P.D.E. = test: Antiphosphodiesterase activity, lung P.D.E.; format: biochemical, Wistar rats; conditions: rat lungs, relative to theophylline
Excerpt: as §1

[2] = 0.5 h, 30' after intramuscular administration
[3] = 1 h, 60' after intramuscular administration
[4] = 1.5 h, 90' after intramuscular administration

SMILES	activity against brain P.D.E. in comparison with theophylline (brain P.D.E.)	ED50 [1, 2]	ED50 [1, 3]	ED50 [1, 4]	% dead animals (rats; 50 mg/kg S.C. (20'))	% dead animals (rats; 100 mg/kg S.C. (20'))	LD50 (Acute toxicity; po, per os)	LD50 (Acute toxicity; intravenous injection)	% dead animals (mouses; 25 mg/kg S.C. (20'))	% dead animals (mouses; 50 mg/kg S.C. (20'))	% dead animals (mouses; 100 mg/kg S.C. (20'))	% dead animals (guinea pigs; 50 mg/kg S.C. (20'))	% dead animals (guinea pigs; 100 mg/kg S.C. (20'))	activity against heart P.D.E. in comparison with theophylline (heart P.D.E.)	activity against lung P.D.E. in comparison with theophylline (lung P.D.E.)
CC(C)Cn1cnc2c1c(=O)n(C)c(=O)n2C [7-isobutyl theophylline, 1,3-dimethyl-7-isobutyl-xanthine]	twice more active	120 µmol/kg	140 µmol/kg	160 µmol/kg	0%	0%	199 mg/kg	129 mg/kg	0%	0%	0%	0%	0%	four times more active	four times more active
Cn1c(=O)c2[nH]cnc2n(C)c1=O [Theophylline, theophylline, reference compound]	–	270 µmol/kg	230 µmol/kg	200 µmol/kg	–	–	–	–	–	–	–	–	–	–	–
